The text below walks through data of PMC6503114, “Application of Antimicrobial Peptides of the Innate Immune System in Combination With Conventional Antibiotics—A Novel Way to Combat Antibiotic Resistance?” (Frontiers in Cellular and Infection Microbiology, 2019).

Where a SMILES comes first, the peptide text is derived from it. Bridges are numbered along the chain shown (N, C = ends).

Data set [1] relates to doxorubicin-resistant K562 tumor cells. The following applies: for MEC: doxorubicin-resistant K562 cell line; for enhancement in MEC values comparing susceptible and resistant cell lines: doxorubicin-resistant vs susceptible K562. Here is the method: (§1) The human erythromyeloid leukemia cell line K562 was obtained from the collection of the Institute of Cytology RAS (Saint Petersburg, Russia) and cultured in RPMI-1640 medium containing gentamicin (100 μg/ml) and 10% of fetal bovine serum at 37°C, 5% CO2. […] Drug resistance was maintained by monthly selection with the antibiotic (2 μg/ml in the culturing medium). Doxorubicin was removed from the medium 3 days prior to beginning any experiments. Before the testing K562 cells were washed twice with PBS and resuspended in RPMI-1640 in the same way as the other cell types.
(§2) We calculated Fractional Effective Concentration Index (FECI), which could be seen as a particular case of the interaction index (I) proposed by Berenbaum ([1977]) or of the similar combination index (CI) proposed by Chou and Talalay ([1983]), according to the equation below: […]
(§3) Here, [MEC A] and [MEC B] are the minimum effective concentrations (MEC) of substances A and B, when they are used alone. […] [A] and [B] are respective concentrations of substances A and B in their combination, where the same statistically significant difference is detected. A non-parametric Mann-Whitney U-test (p < 0.05 or p < 0.01) was used for the mentioned statistical comparison.
(§4) We have chosen the same intervals as that of FICI to determine synergy, additivity, independent action, and antagonism based on the minimal FECI values. However, in case of cytotoxic or hemolytic effect we were interested mainly in testing the possibility of additive or synergistic interaction itself, and not in assessing the exact magnitude of such interaction. Thus, in contrast to the “checkerboard titration” method used for combined antimicrobial activity investigation, studying the combined cytotoxic effect, we considered only two combinations of concentrations for the substances A and B in the mixture: • (½ MEC A + ½ MEC B), which, if found effective, provides the FECI value of 1 (the threshold value for additivity); • (¼ MEC A + ¼ MEC B), which, if found effective, provides the FECI value of 0.5 (the threshold value for synergetic interaction).
(§5) When action on tumor cells was tested in combination with antitumor antibiotic the lower concentrations up to ( 1/16 MEC A + 1/16 MEC B) as in checkerboard titration were additionally examined to assess the magnitude of synergistic effect more precisely. The final conclusion was made based on the three independent experiments.
(§6) Standard MTT-test (Mosmann, [1983]) was used for the examination of the cytotoxic activity of antimicrobial compounds and their combinations toward varied eukaryotic cells. Briefly, cell suspensions in RPMI-1640 prepared as described in Eukaryotic Cells were dispensed into the 96-well microplates (2 × 10^5 cells/well). Then, serial dilutions of AMPs, or other antibiotic compounds, or their mixtures in RPMI-1640 were added. In positive controls (100% cell survival) the according volume of RPMI-1640 without test substances was added instead. The final volume in each well was 100 μl. Negative controls (0% cell survival) were made with 100 μl of the sterile RPMI-1640. The plates were incubated at 37°C under 5% CO2 for 24 h. Four hours before the end of incubation, 10 μl of metabolic marker MTT−3-(4,5-dimethylthiazol-2-yl)-2,5-diphenyltetrazolium bromide (5 mg/ml, diluted in PBS) was added to each well. Incubation was stopped by adding 90 μl of isopropanol containing 0.04 M HCl. Content of the wells was thoroughly mixed, so that the formazan crystals, formed in case of the reduction of MTT in presence of actively metabolizing cells, were fully dissolved.

Another data set relates to K562. On the procedure:
as §1, §2, §3, §4, §5, §6

A further data set has as its system Human PBMC. The experiment in a line: MTT-test. Here is the method:
To obtain neutrophils and mononuclear cells, whole heparinized blood was diluted with sterile PBS in a 1:1 ratio and carefully inserted into the sterile polystyrene 50 ml tube upon the 5 ml of the sterile Ficoll-400 (Pharmacia, Sweden) with a density of 1.077. The tube was centrifuged at 600 g and 4°C for 40 min. After separation, the mononuclear “ring” located between the blood plasma and Ficoll was collected with a Pasteur pipette, transferred to another tube, and washed twice with 10 ml of sterile PBS by centrifugation for 10 min at 300 g and 4°C.
as §2, §3, §4, §5
as §6, with “dissolved. The optical density of the samples was evaluated at 540 nm, subtracting the background absorbance at 690 nm, by SpectraMax 250 Spectrophotometer (Molecular Devices, USA). The experiments were repeated at least three times. In each experiment test samples were made in triplicates and control samples were made in hexaplicates.” for “dissolved.”
Background: Tetrazolium assays rely on reduction of a dye to a coloured formazan, in cell work by metabolically active cells.

In the next data set the test system is Murine EAC. The experiment in a line: MTT-test. Format: cell-based, mice. The note with it: Murine EAC tumor cells, 24 h. On the procedure:
(§7) Before the cells extraction, mice were sacrificed by cervical dislocation in accordance with the supplement to the Directive 86/609/EEC and its update Directive 2010/63/EU addressing the recommendations for euthanasia of experimental animals (Close et al., [1996]). To obtain peritoneal macrophages, healthy mice were used. The abdominal cavity of each animal was washed with 3 ml of sterile PBS using a Pasteur pipette. The culture of EAC cells was kindly provided by Dr. E.P. Kiseleva (Immunology Department of the Institute of Experimental Medicine, Saint Petersburg, Russia). On the tenth day after the intraperitoneal tumor inoculation, 0.5–1.5 ml of ascitic fluid containing EAC cells was obtained from the abdominal cavity of the animals. Murine cells (normal or tumor) were washed twice with 10 ml of sterile PBS and resuspended in RPMI-1640 medium as described above for human neutrophils and PBMC.
as §2, §3, §4, §5, §6

For another data set, the system named is Human neutrophils. Here is the method:
The pellet formed under the Ficoll-400 layer after separation contained both neutrophils and erythrocytes. It was also transferred into a separate tube, where the red blood cells were lysed with 0.83% ammonium chloride solution, which was added in a ratio of 1:4. After the thorough mixing, the suspension was incubated for 10 min at room temperature, and then centrifuged for 10 min at 300 g and 4°C. The resulting precipitate containing neutrophils was washed twice with the sterile PBS.
as §2, §3, §4, §5
as §6, with “dissolved. The optical density of the samples was evaluated at 540 nm, subtracting the background absorbance at 690 nm, by SpectraMax 250 Spectrophotometer (Molecular Devices, USA). The experiments were repeated at least three times. In each experiment test samples were made in triplicates and control samples were made in hexaplicates.” for “dissolved.”

Data set [2] has as its system Murine peritoneal macrophages. Kind of data set: MTT-test. On the procedure: as §7, §2, §3, §4, §5, §6
A further data set has as its system E. coli ML-35p. Kind of data set: microbe, parasite or virus in culture. It is filed as cell-based, Escherichia coli. The note with it: median of 3–6 experiments, value in square brackets = twice the maximal tested concentration.

Method for E. coli ML-35p: Prior to the “checkerboard” synergy test the minimal inhibitory concentrations (MIC) of individual substances were determined using broth microdilution assay. Testing was performed in 60-well polystyrene Terasaki microplates with V-shaped bottom generally according to the guidelines of the European Committee for Antimicrobial Susceptibility Testing with subtle modifications designed for AMP testing (Tossi et al., [1997]; Wiegand et al., [2008]). Cultivation of bacteria was carried out in 2.1% Müller-Hinton broth at 37°C with shaking. Two-fold serial dilutions of peptides, antibiotics and other antimicrobials were made with 10 mM sodium phosphate buffer, pH 7.4, containing 0.1% of BSA. The plates were preliminary incubated with 0.1% BSA for 1 h at 37°C to reduce a non-specific binding of peptides to the plates. After that BSA was removed, and serial dilutions were added into the plate wells in triplicates followed by the same volume of the suspension of bacterial cells in logarithmic phase of growth in concentration of 1 × 10^6 CFU/ml. After the 18 h overnight incubation at 37°C, the MIC value for each compound was determined as its lowest concentration completely inhibiting the visible growth of bacteria. The final results were calculated as median values based on 3–6 independent experiments.

For `COc1cccc2c1C(=O)c1c(O)c3c(c(O)c1C2=O)C[C@@](O)(C(=O)CO)C[C@@H]3O[C@H]1C[C@H](N)[C@H](O)[C@H](C)O1` [doxorubicin], in data set [1], the MEC came to 100 µg/mL; the “enhancement in MEC values comparing susceptible and resistant cell lines” value was 100 times. For the same compound, the MEC in the data set on K562 (susceptible K562 cell line) was determined as 1 µg/mL.

For the compound `CC(C)C[C@H](NC(=O)[C@H](CCCNC(=N)N)NC(=O)CNC(=O)CNC(=O)[C@@H](N)CCCNC(=N)N)C(=O)N[C@H]1CSSC[C@@H](C(=O)N[C@H](C(=O)NCC(=O)N[C@@H](CCCNC(=N)N)C(N)=O)C(C)C)NC(=O)[C@H](C(C)C)NC(=O)[C@@H]2CSSC[C@H](NC(=O)[C@H](Cc3ccc(O)cc3)NC1=O)C(=O)N[C@@H](CCCNC(=N)N)C(=O)N[C@@H](CCCNC(=N)N)C(=O)N[C@@H](CCCNC(=N)N)C(=O)N[C@@H](Cc1ccccc1)C(=O)N2` [PG-1, protegrin 1], the “MEC of cytotoxic action” value in the data set on Human PBMC is 5.0 µM; in the data set on Murine EAC, 1.25 µM; with K562 (K562 tumor cells (doxorubicin-sensitive), MTT, 24 h), 1.25 µM; in the data set on Human neutrophils, 2.5 µM; in data set [2], 2.5 µM. Also, the “minimal FECI (combined cytotoxic action)” value in data set [1] was 0.38; in the data set with K562 it was 0.25. In addition, in data set [1], the MEC stood at 5.0 µM. In data set [1], the “enhancement in MEC values comparing susceptible and resistant cell lines” value is given as 4 times.

As to `CC[C@H](C)[C@@H]1NC(=O)[C@H](CC(C)C)NC(=O)[C@@H]2CSSC[C@@H]3NC(=O)[C@H](CO)NC(=O)[C@@H](NC(=O)[C@@H](N)C(C)C)CSSC[C@@H](C(=O)N[C@H](C(=O)N[C@@H](CCCNC(=N)N)C(=O)N[C@H](C(=O)O)C(C)C)[C@@H](C)O)NC(=O)[C@H](CSSC[C@H](NC(=O)[C@H](Cc4ccccc4)NC(=O)[C@H](C(C)C)NC(=O)[C@H](CC(C)C)NC(=O)[C@H](CCCNC(=N)N)NC3=O)C(=O)N[C@@H](CCCNC(=N)N)C(=O)N[C@@H](CCCNC(=N)N)C(=O)N[C@@H]([C@@H](C)O)C(=O)N[C@@H](CCC(=O)O)C(=O)N[C@@H](CC(C)C)C(=O)N[C@@H](CCCNC(=N)N)C(=O)N[C@@H](C(C)C)C(=O)NCC(=O)N[C@@H](CC(N)=O)C(=O)N2)NC(=O)[C@H](Cc2ccc(O)cc2)NC(=O)[C@H]([C@@H](C)O)NC(=O)[C@H](Cc2ccccc2)NC(=O)[C@H](CO)NC(=O)[C@H](C(C)C)NC(=O)CNC(=O)CNC1=O` [HNP-4] (H-VCSCRLVFCRRTELRVGNCLIGGVSFTYCCTRV-OH; disulfide 2-30, 4-19, 9-29 (inferred); N-terminus and C-terminus assumed), in the data set with E. coli ML-35p, the MIC is >100 [200] μM.
